Experimental data: US20170065564A1, “BIS-CYCLIC GUANIDINE COMPOUND COMPOSITIONS, METHODS OF USE AND TREATMENT THEREOF” (University of South Florida, priority 2014, published 2017)
≈ marks a conversion by molar mass, not a printed value.

Tests used:
Enterococcus faecium [1] = assay: Minimal bactericidal concentration (MBC) assay; format: cell-based; settings: Enterococcus faecium, purified compound; read-out: MBC90
Description: (§1) Briefly, compound was washed by centrifugation and serial dilution, before plating on Tryptic Soy Agar (TSA). Plates were incubated for 24 hours at 37° C. and cell viability assessed by determining CFU/ml at each concentration, for every compound. Percent recovery was then determined compared to CFU/ml from no drug controls. All concentrations and controls were tested using three biological replicates, alongside two technical replicates for each data point.

Klebsiella pneumoniae = assay: Minimal bactericidal concentration (MBC) assay; format: cell-based; settings: Klebsiella pneumoniae, purified compound; read-out: MBC90
Description: as §1

Staphylococcus aureus = assay: Minimal bactericidal concentration (MBC) assay; format: cell-based; settings: Staphylococcus aureus, purified compound; read-out: MBC90
Description: as §1

Enterobacter cloacae = assay: Minimal bactericidal concentration (MBC) assay; format: cell-based; settings: Enterobacter cloacae; purified compound; read-out: MBC90
Description: as §1

Pseudomonas aeruginosa [2] = assay: Minimal bactericidal concentration (MBC) assay; format: cell-based; settings: Pseudomonas aeruginosa; purified compound; read-out: MBC90
Description: as §1

Acinetobacter baumannii [3] = assay: Minimal bactericidal concentration (MBC) assay; format: cell-based; settings: Acinetobacter baumannii, purified compound; read-out: MBC90
Description: as §1

[4] = test system: Staphylococcus aureus (USA300 strain FPR3757); assay: Murine model of lethal peritonitis; format: in vivo, mice; settings: 2× MIC, I.M., 1 h post-infection, six mice per group
Description: Using MRSA as a representative ESKAPE organism, we infected mice with 1×10^8 bacterial cells in 5% mucin via intraperitoneal injection. At 1 h post-infection, mice were then I.V. injected with either vancomycin (positive control), or I.M. with our front runner compounds.
Six mice per group were injected with 1×10^8 CFU ml^−1 of Staphylococcus aureus (USA300 strain FPR3757) in PBS containing 5% mucin. […] Mice were monitored twice daily for five days to assess mortality. The clinical endpoint of this study was when the mice reached a pre-moribund state. Characteristics of pre-moribund state include: hunched posture, rapid, shallow and/or labored breathing, ruffled fur, lethargy, failure to respond to stimuli, soiled anogenital area, paralysis, paresis, head tilt, circling, vocalizations, non-purposeful movements and/or were unable to eat or drink. Those mice reaching this state prior to the completion of the 5 day infection period were euthanized. The number of mice surviving between control and treatment groups was compared and analyzed for statistical significance using a log rank test.

ESKAPE pathogens = assay: MIC micro broth dilution assay, statements and stacked scores over all ESKAPE pathogens; format: cell-based; settings: letters E,S,K,A,P,E = ESKAPE pathogens, — = none
Method in brief: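 Overnight cultures of multidrug-resistant clinical isolates, diluted 1 in 1,000 (Gram-positives in TSB, Gram-negatives in LB), were exposed to decreasing compound concentrations in DMF (≤2.0%) at 37° C. MIC was read visually as no turbidity after 24 hours, in triplicate. Broad-spectrum activity was ranked by stacked scores.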

Enterococcus faecium [5] = assay: MIC micro broth dilution assay; format: cell-based; settings: for MIC: Enterococcus faecium
Method in brief: (§2)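 Strains were multidrug-resistant clinical isolates grown in LB (Gram-negative) or TSB (Gram-positive), diluted 1:1,000 before compound addition.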

S. aureus = assay: Resistance serial passage assay; format: cell-based, Staphylococcus aureus; settings: 8 passages, concentration doubled each day
Description: ESKAPE pathogens were grown overnight in liquid media at 37° C. These cultures were then diluted 1:100 in fresh media, and seeded into a 96-well plate. Lead bis-cyclic guanidines or control agents were added to respective wells at half MIC concentrations. Plates were then incubated for 24 hours at 37° C., with bacteria removed from these cultures on the following day, to inoculate fresh media (1:100 dilution) containing compounds at a 2-fold higher concentrations. These were then grown overnight, and the procedure repeated for a total of eight days. […] Each experiment was performed in triplicate, yielding identical results.

Acinetobacter baumannii [6] = assay: MIC micro broth dilution assay; format: cell-based; settings: for MIC: Acinetobacter baumannii
Method in brief: as §2

Pseudomonas aeruginosa [7] = assay: MIC micro broth dilution assay; format: cell-based; settings: for MIC: Pseudomonas aeruginosa
Description: For this study we used a representative panel of multi-drug resistant clinical ESKAPE pathogen isolates (Supplemental Table S6).^42 43 3a, 44 45 Gram-positive organisms were grown in tryptic soy broth media (TSB), whilst Gram-negative organisms were grown in lysogeny Broth (LB), as described by us previously. ^43 MIC and MBC determination assays.
Broth cultures of ESKAPE strains were grown overnight before being diluted 1 in 1,000 in fresh media. Sterile 96-well plates were loaded with culture and compounds (in DMF) were added at decreasing concentrations to equal a total volume of 200 μl per well. Care was taken to not add more than 2.0% DMF to any well. Plates were then incubated at 37° C., and MICs determined after 24 hours by visual inspection for a lack of turbidity in wells. All assays were performed in triplicate with identical results obtained. For both the scaffold ranking and positional scanning samples, relative broad-spectrum activity was determined via stacked scores: […]

`CCCCCCCN1C(=N)N(CCCC[C@H]2CNC(=N)N2CCCCC2CCCCC2)C[C@@H]1CC1CCCCC1` [Compound 16] was tested, and the MBC (Enterococcus faecium [1]) was 2.87 µM (≈ 1.6 µg/mL), the MBC (Klebsiella pneumoniae) was 4.45 µM (≈ 2.48 µg/mL) and the MBC (Staphylococcus aureus) was 3.88 µM (≈ 2.16 µg/mL). For the same molecule, the MBC (Enterobacter cloacae) was 9.55 µM (≈ 5.32 µg/mL), the MBC (Pseudomonas aeruginosa [2]) was 3.99 µM (≈ 2.22 µg/mL) and the MBC (Acinetobacter baumannii [3]) was 2.77 µM (≈ 1.54 µg/mL). For the same molecule, the “survival of infected mice over 5 day infection period” value [4] was “only a single mouse succumbing to infection after the first day”, the “pathogens against which the compound showed activity at 4 ug/ml” value (ESKAPE pathogens; dose 4 ug/ml) was “EAP” and the “pathogens against which the compound showed activity at 5 ug/ml” value (ESKAPE pathogens; dose 5 ug/ml) was “ESKAPE”. The “pathogens against which the compound showed activity at 10 ug/ml” value (ESKAPE pathogens; dose 10 ug/ml) was “ESKAPE”, the “pathogens against which the compound showed activity at 25 ug/ml” value (ESKAPE pathogens; dose 25 ug/ml) was “ESKAPE” and the “stacked score activity, 100/MIC, E” value (Enterococcus faecium [5]; E. faecium) was 33. The MIC (Enterococcus faecium [5]; E. faecium isolate 1406) was 2 µM (≈ 1.11 µg/mL), the MIC (Enterococcus faecium [5]; E. faecium isolate 1407) was 2 µM (≈ 1.11 µg/mL) and the MIC (Enterococcus faecium [5]; E. faecium isolate 1432) was 2 µM (≈ 1.11 µg/mL). It also gave an MIC (Enterococcus faecium [5]; E. faecium isolate 1438) of 2 µM (≈ 1.11 µg/mL), an MIC (Enterococcus faecium [5]; E. faecium isolate 1439) of 2 µM (≈ 1.11 µg/mL) and an MIC (Enterococcus faecium [5]; E. faecium isolate 1443) of 2 µM (≈ 1.11 µg/mL). For the same molecule, the MIC (Enterococcus faecium [5]; E. faecium isolate 1444) was 2 µM (≈ 1.11 µg/mL), the MIC (Enterococcus faecium [5]; E. faecium isolate 1449) was 2 µM (≈ 1.11 µg/mL) and the MIC (Enterococcus faecium [5]; E. faecium isolate 1450) was 2 µM (≈ 1.11 µg/mL). The MIC (Enterococcus faecium [5]; E. faecium isolate 1451) was 2 µM (≈ 1.11 µg/mL), the MIC (Enterococcus faecium [5]; purified compound, Table 1) was 1.62 µM (≈ 0.902 µg/mL) and the “increase in MIC after serial passage” value (S. aureus) was 16 fold. For the same molecule, the “stacked score activity, 100/MIC, A” value (Acinetobacter baumannii [6]; A. baumannii) was 33, the MIC (Acinetobacter baumannii [6]; A. baumannii isolate 1403) was 2 µM (≈ 1.11 µg/mL) and the MIC (Acinetobacter baumannii [6]; A. baumannii isolate 1643) was 2 µM (≈ 1.11 µg/mL). The MIC (Acinetobacter baumannii [6]; A. baumannii isolate 1644) was 2 µM (≈ 1.11 µg/mL), the MIC (Acinetobacter baumannii [6]; A. baumannii isolate 1647) was 2 µM (≈ 1.11 µg/mL) and the MIC (Acinetobacter baumannii [6]; A. baumannii isolate 1648) was 2 µM (≈ 1.11 µg/mL). It also gave an MIC (Acinetobacter baumannii [6]; A. baumannii isolate 1649) of 2 µM (≈ 1.11 µg/mL), an MIC (Acinetobacter baumannii [6]; A. baumannii isolate 1650) of 2 µM (≈ 1.11 µg/mL) and an MIC (Acinetobacter baumannii [6]; A. baumannii isolate 1651) of 2 µM (≈ 1.11 µg/mL). The MIC (Acinetobacter baumannii [6]; A. baumannii isolate 1653) was 2 µM (≈ 1.11 µg/mL), the MIC (Acinetobacter baumannii [6]; A. baumannii isolate 1654) was 2 µM (≈ 1.11 µg/mL) and the MIC (Acinetobacter baumannii [6]; purified compound, Table 1) was 1.62 µM (≈ 0.902 µg/mL). The MIC (Pseudomonas aeruginosa [7]; P. aeruginosa isolate 1414) was 3 µM (≈ 1.67 µg/mL), the MIC (Pseudomonas aeruginosa [7]; P. aeruginosa isolate 1415) was 3 µM (≈ 1.67 µg/mL) and the MIC (Pseudomonas aeruginosa [7]; P. aeruginosa isolate 1416) was 2 µM (≈ 1.11 µg/mL). It also gave an MIC (Pseudomonas aeruginosa [7]; P. aeruginosa isolate 1417) of 3 µM (≈ 1.67 µg/mL), an MIC (Pseudomonas aeruginosa [7]; P. aeruginosa isolate 1418) of 7 µM (≈ 3.9 µg/mL) and an MIC (Pseudomonas aeruginosa [7]; P. aeruginosa isolate 1419) of 3 µM (≈ 1.67 µg/mL). For the same molecule, the MIC (Pseudomonas aeruginosa [7]; P. aeruginosa isolate 1420) was 3 µM (≈ 1.67 µg/mL), the MIC (Pseudomonas aeruginosa [7]; P. aeruginosa isolate 1421) was 3 µM (≈ 1.67 µg/mL) and the MIC (Pseudomonas aeruginosa [7]; P. aeruginosa isolate 1422) was 3 µM (≈ 1.67 µg/mL). For the same molecule, the MIC (Pseudomonas aeruginosa [7]; P. aeruginosa isolate 1423) was 2 µM (≈ 1.11 µg/mL), the MIC (Pseudomonas aeruginosa [7]; purified compound, Table 1) was 1.62 µM (≈ 0.902 µg/mL) and the “concentration inhibiting 90% of isolates” value (Pseudomonas aeruginosa [7]; panel of P. aeruginosa clinical isolates) was 5 µM.
